Assay results published in patent publication US20260000635A1, “THERAPEUTIC AGENT FOR GLAUCOMA COMPRISING FP AGONIST AND ß BLOCKER” (ONO PHARMACEUTICAL CO., LTD., priority 2017, published 2026).

Test system: male dogs (TOYO Beagle)
Assay: Intraocular pressure lowering action after instillation in dogs
Assay type: in vivo, dog (TOYO Beagle)
Details: for Time after administration exhibiting maximum intraocular pressure lowering action: 30 μL instillation, measured at 2, 4, 6, 8, 24 h; for Intraocular pressure lowering width 24 hours after administration / Maximum intraocular pressure lowering width: mean ± S.E., n=8, 30 μL instillation, Compound A 3 μg/mL, timolol 0.5% ophthalmic solution; for Maximum intraocular pressure lowering width: maximum of average lowering width over 2, 4, 6, 8, 24 h
Description: Compound A and a β-blocker were used as test substances. Compound A was prepared in a 3 μg/mL solution using a vehicle (an aqueous solution containing 0.3 w/v % sodium citrate, 0.5 w/v % polysorbate 80, and 0.8 w/v % sodium chloride). Timolol (trade name: Timoptol (registered trademark) 0.5% ophthalmic solution, Santen Pharmaceutical Co., Ltd.) was used as a β-blocker.
Approximately one hour before administering the vehicle and a test substance to male dogs (TOYO Beagle, 16 to 42 months old at start of use) that have been sufficiently acclimated in advance, intraocular pressure in both eyes was measured, and the intraocular pressure was set as the intraocular pressure value before instillation. Thereafter, a test substance or the vehicle was administered by instillation into the treated eyes in an amount of 30 μL each, and intraocular pressure in both eyes was measured about 2, 4, 6, 8, and 24 hours after the administration. The intraocular pressure was measured by a pneumatic applanation tonometer (Model 30 Classic, Reichert, Inc.) under the local anesthesia after instilling 0.4% oxybuprocaine hydrochloride (Benoxil (registered trademark) ophthalmic solution 0.4%, Santen Pharmaceutical Co., Ltd.), which is a local anesthetic. The measurement was performed until a stable value was obtained three times successively (a difference between continuously obtained measured values was within 0.5 mmHg).
The value obtained by subtracting the intraocular pressure value at each measurement time from the intraocular pressure value before test substance and vehicle administration was defined as the intraocular pressure lowering width, and the average value of the intraocular pressure lowering width of each individual at each measurement time was defined as the average intraocular pressure lowering width. The maximum value of the average intraocular pressure lowering width at each measurement time was defined as the maximum intraocular pressure lowering width. In addition, the average intraocular pressure lowering width 24 hours after administration was defined as the intraocular pressure lowering width 24 hours after administration. Meanwhile, in the case where there are two drug names in a group name, it means the order of administration. For example, the Compound A-timolol group means that Compound A was administered first, and timolol was administered thereafter into the same eye.

Row | Structure (SMILES) | Time after administration exhibiting maximum intraocular pressure lowering action | Intraocular pressure lowering width 24 hours after administration | Maximum intraocular pressure lowering width
1 | CC(C)OC(=O)CCC[C@H]1CC[C@@H]2[C@@H](/C=C/[C@@H](O)COc3cc(F)ccc3F)[C@H](O)C[C@@H]2OC1 [Compound A-vehicle, 2-propanyl 4-{(3S,5aR,6R,7R,8aS)-6-[(1E,3R)-4-(2,5-difluorophenoxy)-3-hydroxy-1-buten-1-yl]-7-hydroxyoctahydro-2H-cyclopenta[b]oxepin-3-yl}butanoate] | 6 h | 3.5 ± 0.75 mmHg | 5.8 ± 0.35 mmHg
2 | CC(C)(C)NC[C@H](O)COc1nsnc1N1CCOCC1 [Vehicle-timolol, timolol] | 2 h | 0.0 ± 0.56 mmHg | 2.7 ± 0.56 mmHg
